In one data set the target is T1, Human 5-lipoxygenase (Homo sapiens, UniProt P09917).
T1 construct: purchased Cayman 60402; host or cells: insect cells
T1 sequence (P09917 1-674): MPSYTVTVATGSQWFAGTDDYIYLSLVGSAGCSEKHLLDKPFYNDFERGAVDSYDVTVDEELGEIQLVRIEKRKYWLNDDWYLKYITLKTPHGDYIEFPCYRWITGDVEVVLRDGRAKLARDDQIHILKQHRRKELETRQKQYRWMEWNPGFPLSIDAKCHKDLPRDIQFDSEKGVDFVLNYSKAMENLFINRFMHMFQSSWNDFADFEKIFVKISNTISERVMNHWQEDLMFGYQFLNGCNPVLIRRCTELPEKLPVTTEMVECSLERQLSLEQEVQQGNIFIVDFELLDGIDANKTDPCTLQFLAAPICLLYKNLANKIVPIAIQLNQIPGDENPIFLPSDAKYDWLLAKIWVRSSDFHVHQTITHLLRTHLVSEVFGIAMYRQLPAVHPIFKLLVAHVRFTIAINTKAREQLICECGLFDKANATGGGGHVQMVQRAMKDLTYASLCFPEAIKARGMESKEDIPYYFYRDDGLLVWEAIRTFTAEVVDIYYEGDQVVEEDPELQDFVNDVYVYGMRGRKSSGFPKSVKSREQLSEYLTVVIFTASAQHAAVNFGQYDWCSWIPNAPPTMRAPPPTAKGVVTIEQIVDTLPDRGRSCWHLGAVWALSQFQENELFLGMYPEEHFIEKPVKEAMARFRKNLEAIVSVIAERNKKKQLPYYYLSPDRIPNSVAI
Kind of data set: Activity of compounds against 5-LO enzyme (LTB4 measurement and/or fluorescence method). Type of data set: biochemical. As to conditions: for inhibition at 10 µM: 5-LO, single concentration of 10 uM in duplicate; for IC50: 6 or 11 point dose response in duplicate. Summed up:
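Two read-outs: LTB4 measured by EIA and/or LC/MS/MS with LTB4-d4 standard after 15 min RT compound preincubation with insect-cell 5-LO and a 5 min 37 °C reaction on 3 uM arachidonic acid (0.1 mM ATP, pH 7.4). The room-temperature fluorescence format used 20 uM H2DCFDA, 100 uM ATP, 3 uM arachidonic acid, 5 min; IC50 from 6/11-point curves.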

SMILES strings stand for the structures.

Consider `CCCC(=O)NCc1ccc(N2CCN(c3ccc(CNC(=O)c4c(CC)nc5cc(Cl)ccn45)cc3)CC2)cc1` [compound 125, N-(4-(4-(4-(Butyramidomethyl)phenyl)piperazin-1-yl)benzyl)-7-chloro-2-ethylimidazo[1,2-a]pyridine-3-carboxamide], for which the melting point (as a rule, the temperature, or range, at which the solid turns liquid) was 238 to 239.2 °C. Besides, the inhibition (in general, the change of the read-out against control, counted positive when it falls) at 10 µM against Human 5-lipoxygenase lay within 40 to 69%.

`CCc1nc2cc(Cl)ccn2c1C(=O)NCc1ccc(N2CCN(Cc3ccc(F)cc3)CC2)cc1` [compound 126, 7-Chloro-2-ethyl-N-(4-(4-(4-fluorobenzyl)piperazin-1-yl)benzyl)imidazo[1,2-a]pyridine-3-carboxamide]: the melting point is 141 to 142 °C. Moreover, at Human 5-lipoxygenase, the inhibition at 10 µM was more than 69% and the IC50 (commonly the point on the concentration scale where inhibition reaches its midpoint) is 1 to 20 µM.

As for `CCc1nc2cc(Cl)ccn2c1C(=O)NCc1ccc(Oc2ccc(OC(F)(F)F)cc2)cc1` [compound 128, 7-Chloro-2-ethyl-N-(4-(4-(trifluoromethoxy)phenoxy)benzyl)imidazo[1,2-a]pyridine-3-carboxamide], the melting point was 141 to 142 °C. On Human 5-lipoxygenase, this compound registered an inhibition at 10 µM of more than 69% and an IC50 of less than 1 µM.

`CCc1nc2ccc(Cl)cn2c1C(=O)NCc1ccc(C#N)cc1` [compound 134, 6-Chloro-N-(4-cyanobenzyl)-2-ethylimidazo[1,2-a]pyridine-3-carboxamide] yielded a melting point of 223 to 224 °C. This compound came in with an inhibition at 10 µM against Human 5-lipoxygenase of less than 40%.

Compound `CCc1nc2ccc(Cl)cn2c1C(=O)NCc1ccc(C(F)(F)F)cc1` [compound 135, 6-Chloro-2-ethyl-N-(4-(trifluoromethyl)benzyl)imidazo[1,2-a]pyridine-3-carboxamide] gave a melting point of 179 to 180 °C. The inhibition at 10 µM against Human 5-lipoxygenase was less than 40%.

Turning to `CCc1nc2ccc(Cl)cn2c1C(=O)NCCc1ccc(OC)cc1` [compound 136, 6-Chloro-2-ethyl-N-(4-methoxyphenethyl)imidazo[1,2-a]pyridine-3-carboxamide], the melting point is 129 to 130 °C. At Human 5-lipoxygenase, this compound returned an inhibition at 10 µM of less than 40%.

Consider `CCc1nc2ccc(Cl)cn2c1C(=O)NCCc1ccc(Cl)cc1` [compound 137, 6-Chloro-N-(4-chlorophenethyl)-2-ethylimidazo[1,2-a]pyridine-3-carboxamide], for which the melting point was 158 to 159 °C. For the same compound, at Human 5-lipoxygenase, the inhibition at 10 µM lay in the range of 40 to 69%.

In the case of `CCc1nc2ccc(Cl)cn2c1C(=O)NCC1CCN(Cc2ccc(OC(F)(F)F)cc2)CC1` [compound 138, 6-Chloro-2-ethyl-N-((1-(4-(trifluoromethoxy)benzyl)piperidin-4-yl)methyl)imidazo[1,2-a]pyridine-3-carboxamide], the melting point lay in the range of 171 to 172 °C. This compound also returned an inhibition at 10 µM against Human 5-lipoxygenase of 40 to 69%.

Turning to `CCc1nc2ccc(Cl)cn2c1C(=O)NCC1CCN(Cc2ccc(F)cc2)CC1` [compound 139, 6-Chloro-2-ethyl-N-((1-(4-fluorobenzyl)piperidin-4-yl)methyl)imidazo[1,2-a]pyridine-3-carboxamide], the melting point is 176 to 177 °C. The same compound had an inhibition at 10 µM against Human 5-lipoxygenase of less than 40%.

Compound `CCc1nc2cc(Cl)ccn2c1C(=O)NCC1CCN(Cc2ccc(OC(F)(F)F)cc2)CC1` [compound 140, 7-Chloro-2-ethyl-N-((1-(4-(trifluoromethoxy)benzyl)piperidin-4-yl)methyl)imidazo[1,2-a]pyridine-3-carboxamide] gave a melting point of 145 to 146 °C. At Human 5-lipoxygenase, this compound displayed an inhibition at 10 µM of 40 to 69%.

`CCc1nc2cnccn2c1C(=O)NCc1ccc(OC(F)(F)F)cc1` [compound 141, 2-Ethyl-N-(4-(trifluoromethoxy)benzyl)imidazo[1,2-a]pyrazine-3-carboxamide] displayed a melting point of 176 to 177 °C. The inhibition at 10 µM against Human 5-lipoxygenase was less than 40%.

`CCc1nc2c[n+]([O-])ccn2c1C(=O)NCc1ccc(OC(F)(F)F)cc1` [compound 142, 2-Ethyl-3-((4-(trifluoromethoxy)benzyl)carbamoyl)imidazo[1,2-a]pyrazine 7-oxide] came in with a melting point of 215 to 216 °C. This compound came in with an inhibition at 10 µM at Human 5-lipoxygenase of 40 to 69%.

Turning to `CCc1nc2ccc(Cl)cn2c1COc1ccc(OC(F)(F)F)cc1` [compound 143, 6-Chloro-2-ethyl-3-((4-(trifluoromethoxy)phenoxy)methyl)imidazo[1,2-a]pyridine], the melting point lay in the range of 127 to 128 °C. On Human 5-lipoxygenase, this compound yielded an inhibition at 10 µM of more than 69%.

With `CCc1nc2ccc(Cl)cn2c1C=O` [compound 145, 6-Chloro-2-ethylimidazo[1,2-a]pyridine-3-carbaldehyde], the melting point lay in the range of 115 to 116 °C. Besides, the inhibition at 10 µM at Human 5-lipoxygenase is less than 40%.

Compound `CCc1nc2ccc(Cl)cn2c1CO` [compound 146, (6-Chloro-2-ethylimidazo[1,2-a]pyridin-3-yl)methanol] displayed a melting point of 173.2 to 174.2 °C. Also, the inhibition at 10 µM against Human 5-lipoxygenase was less than 40%.

Regarding `CCc1nc2cc(Cl)ccn2c1C(=O)NCc1ccc(C(F)(F)F)cc1` [compound 155, 7-Chloro-2-ethyl-N-(4-(trifluoromethyl)benzyl)imidazo[1,2-a]pyridine-3-carboxamide], the melting point was 196.2 to 196.9 °C. The inhibition at 10 µM on Human 5-lipoxygenase is less than 40%.

Compound `CCc1nc2ccc(Cl)cn2c1C(=O)NCc1ccc(N2CCN(Cc3ccc(OC(F)(F)F)cc3)CC2)cc1` [compound 156, 6-Chloro-2-ethyl-N-(4-(4-(4-(trifluoromethoxy)benzyl)piperazin-1-yl)benzyl)imidazo[1,2-a]pyridine-3-carboxamide] yielded a melting point of 138.1 to 138.7 °C. The compound further came in with an inhibition at 10 µM against Human 5-lipoxygenase of less than 40%.

Compound `CCc1nc2cc(Cl)ccn2c1C(=O)NCc1ccc(N2CCN(Cc3ccc(OC(F)(F)F)cc3)CC2)cc1` [compound 157, 7-Chloro-2-ethyl-N-(4-(4-(4-(trifluoromethoxy)benzyl)piperazin-1-yl)benzyl)imidazo[1,2-a]pyridine-3-carboxamide] yielded a melting point of 137.1 to 137.6 °C. In addition, on Human 5-lipoxygenase, the inhibition at 10 µM was more than 69% and the IC50 lay within 1 to 20 µM.

In the case of `CCc1nc2ccc(Cl)cn2c1C(=O)NCc1ccc(N2CCN(c3ccc(OC(F)(F)F)cc3)CC2)cc1` [compound 158, 6-Chloro-2-ethyl-N-(4-(4-(4-(trifluoromethoxy)phenyl)piperazin-1-yl)benzyl)imidazo[1,2-a]pyridine-3-carboxamide], the melting point lay within 206.5 to 207 °C. This compound came in with an inhibition at 10 µM on Human 5-lipoxygenase of 40 to 69%.

Compound `CCc1nc2cc(Cl)ccn2c1C(=O)NCc1ccc(N2CCN(c3ccc(OC(F)(F)F)cc3)CC2)cc1` [compound 159, 7-Chloro-2-ethyl-N-(4-(4-(4-(trifluoromethoxy)phenyl)piperazin-1-yl)benzyl)imidazo[1,2-a]pyridine-3-carboxamide] returned a melting point of 216.3 to 217 °C. At Human 5-lipoxygenase, this compound displayed an inhibition at 10 µM of 40 to 69%.

For the compound `CCc1nc2ccc(Cl)cn2c1C(=O)NCc1ccc(Oc2ccc(Cl)cc2)cc1` [compound 160, 6-Chloro-N-(4-(4-chlorophenoxy)benzyl)-2-ethylimidazo[1,2-a]pyridine-3-carboxamide], the melting point is 159 to 160.7 °C. Also, the inhibition at 10 µM at Human 5-lipoxygenase lay within 40 to 69%.

`CCc1nc2cc(Cl)ccn2c1C(=O)NCc1ccc(Oc2ccc(Cl)cc2)cc1` [compound 161, 7-Chloro-N-(4-(4-chlorophenoxy)benzyl)-2-ethylimidazo[1,2-a]pyridine-3-carboxamide] returned a melting point of 167.1 to 167.9 °C. At Human 5-lipoxygenase, this compound showed an inhibition at 10 µM of more than 69% and an IC50 of 1 to 20 µM.

`CCc1nc2ccc(Cl)cn2c1C(=O)OCc1ccc(-c2ccccc2)cc1` [compound 162, [1,1′-Biphenyl]-4-ylmethyl 6-chloro-2-ethylimidazo[1,2-a]pyridine-3-carboxylate] came in with a melting point of 122.3 to 123 °C. In addition, the inhibition at 10 µM at Human 5-lipoxygenase was in the range of 40 to 69%.

Consider `CCc1nc2ccc(Cl)cn2c1C(=O)OCc1ccc(Oc2ccccc2)cc1` [compound 163, 4-Phenoxybenzyl 6-chloro-2-ethylimidazo[1,2-a]pyridine-3-carboxylate], for which the melting point is 123.3 to 123.8 °C. For the same compound, the inhibition at 10 µM against Human 5-lipoxygenase lay within 40 to 69%.

As to `CCc1nc2ccc(Cl)cn2c1-c1nc(Cc2ccc(OC(F)(F)F)cc2)no1` [compound 165, 5-(6-Chloro-2-ethylimidazo[1,2-a]pyridin-3-yl)-3-(4-(trifluoromethoxy)benzyl)-1,2,4-oxadiazole], the melting point was in the range of 146.4 to 146.9 °C. Moreover, at Human 5-lipoxygenase, the inhibition at 10 µM was less than 40%.

As to `CCc1nc2ccccn2c1C(=O)NCc1ccc(N2CCN(c3ccc(OC(F)(F)F)cc3)CC2)cc1` [compound 181, 2-Ethyl-N-(4-(4-(4-(trifluoromethoxy)phenyl)piperazin-1-yl)benzyl)imidazo[1,2-a]pyridine-3-carboxamide], the melting point lay in the range of 178 to 179 °C. At Human 5-lipoxygenase, this compound returned an inhibition at 10 µM of more than 69% and a concentration for half-maximal inhibition (IC50) of 1 to 20 µM.

The values are drawn from US9029389B2 (Institut Pasteur Korea, priority 2011, dated 2015).
